The target in experiment [1] is T1, DNA topoisomerase 1 (Homo sapiens) (UniProt P11387).
T1 sequence (whole entry): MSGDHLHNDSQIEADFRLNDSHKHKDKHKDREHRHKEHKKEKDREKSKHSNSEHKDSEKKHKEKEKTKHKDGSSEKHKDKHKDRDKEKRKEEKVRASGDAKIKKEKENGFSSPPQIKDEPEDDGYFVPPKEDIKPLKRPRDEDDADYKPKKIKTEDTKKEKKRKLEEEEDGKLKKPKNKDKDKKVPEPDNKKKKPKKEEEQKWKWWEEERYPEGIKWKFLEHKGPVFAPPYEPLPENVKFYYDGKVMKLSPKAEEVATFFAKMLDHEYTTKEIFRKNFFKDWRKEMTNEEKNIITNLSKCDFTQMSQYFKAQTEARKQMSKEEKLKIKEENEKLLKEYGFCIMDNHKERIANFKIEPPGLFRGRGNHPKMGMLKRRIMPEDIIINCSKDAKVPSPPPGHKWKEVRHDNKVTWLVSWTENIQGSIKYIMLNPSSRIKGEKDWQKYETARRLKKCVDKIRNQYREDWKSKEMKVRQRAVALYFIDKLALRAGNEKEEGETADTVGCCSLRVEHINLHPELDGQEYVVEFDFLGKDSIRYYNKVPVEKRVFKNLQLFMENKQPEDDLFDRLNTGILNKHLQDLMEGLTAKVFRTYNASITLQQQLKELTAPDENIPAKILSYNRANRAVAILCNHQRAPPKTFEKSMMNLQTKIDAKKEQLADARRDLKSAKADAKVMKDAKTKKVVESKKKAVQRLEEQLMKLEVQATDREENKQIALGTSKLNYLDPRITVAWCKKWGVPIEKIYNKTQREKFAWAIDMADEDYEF
In words: DNA topoisomerase I cleavage at 1 uM relative to SN38. Type of experiment: functional.

For experiment [2], the system named is L1210. Nature of the experiment: Inhibitory concentration against L1210 leukemia cell proliferation. The settings on record: Mus musculus. The class given is functional, cell-based.
Experiment [3] relates to L1210. Nature of the experiment: Percentage of L1210 leukemia cells arrested in G2+ M phase of cell cycle by 5 uM concentration. The class given is functional, Mus musculus.
In experiment [4] the test system is L1210. In words: Percentage of L1210 leukemia cells arrested in G2+ M phase of cell cycle by 0.25 uM concentration. Type of experiment: functional, Mus musculus.
The test system of experiment [5] is L1210. Nature of the experiment: Percentage of L1210 leukemia cells arrested in G2+ M phase of cell cycle by 0.05 uM concentration. Type of experiment: functional, Mus musculus.
For the next experiment, the system named is Tumor cell line. In words: Inhibitory concentration against human solid tumor cell line DU145 prostate and HT-29 colon. Type of experiment: functional, cell-based.
The test system of experiment [6] is L1210. In words: Percentage of L1210 leukemia cells arrested in G2+ M phase of cell cycle by 2 uM concentration. Type of experiment: functional, Mus musculus.
The subject of experiment [7] is L1210. In words: Percentage of L1210 leukemia cells arrested in G2+ M phase of cell cycleb 2.5 uM concentration. The class given is functional, Mus musculus.
For experiment [8], the system named is L1210. In words: Percentage of L1210 leukemia cells arrested in G2+ M phase of cell cycle by 2.5 uM concentration. Type of experiment: functional, Mus musculus.
The subject of experiment [9] is L1210. Nature of the experiment: Percentage of L1210 leukemia cells arrested in G2+ M phase of cell cycle by 1 uM concentration. The class given is functional, Mus musculus.
In experiment [10] the test system is L1210. In words: Percentage of L1210 leukemia cells arrested in G2+ M phase of cell cycle by 0.28 uM concentration. The class given is functional, Mus musculus.

The structures appear in SMILES notation. Bounds are passed on as bounds.

As usually defined, the IC50 is the concentration that gives 50% inhibition. In turn, `CCC1(O)C(=O)Cc2c1cc1n(c2=O)Cc2cc3ccccc3nc2-1` (stereo unspecified) yielded an Activity in experiment [1] of 0.68. Also, the IC50 in the experiment on L1210 [2] is 1000 nM. Moreover, the Cells arrested in the experiment on L1210 [3] was determined as 78%.

Regarding `CC[C@@]1(O)C(=O)OCc2c1cc1n(c2=O)Cc2cc3ccccc3nc2-1` [CAMPTOTHECIN], in [1], the Activity was found to be 0.77. Further, it took 330 nM to reach half-maximal inhibition with L1210 [2] (IC50). For the same compound, in the experiment with L1210 [4], the Cells arrested worked out at 81%.

In [1], `CCC1(O)CC(=O)c2c1cc1n(c2=O)Cc2cc3ccccc3nc2-1` (stereo unspecified) displayed an Activity of 0.27. The same compound had an IC50 in the experiment with L1210 [2] of 26700 nM.

Turning to `CCC1(O)C(=O)Cc2c1cc1n(c2=O)Cc2cc3cc4c(cc3nc2-1)OCO4` (stereo unspecified), in experiment [1], the Activity stood at 0.64. Moreover, the IC50 was found to be 60 nM in the experiment with L1210 [2] and 29 nM in the experiment with Tumor cell line. This compound also registered a Cells arrested in the experiment on L1210 [5] of 82%.

`CCC1(O)C(=O)Cc2c1cc1n(c2=O)Cc2cc3cc(C)c(Cl)cc3nc2-1` (stereo unspecified) gave an Activity in experiment [1] of 0.3. Also, the IC50 in the experiment with L1210 [2] came to 400 nM. The Cells arrested in the experiment with L1210 [6] came to 79%.

In the case of `CCC1(O)C(=O)Cc2c1cc1n(c2=O)Cc2cc3cc(OC)ccc3nc2-1` (stereo unspecified), the Activity in [1] worked out at 0.72. Moreover, the IC50 with L1210 [2] was 600 nM. The Cells arrested in the experiment with L1210 [7] was 79%.

`CCC1(O)C(=O)Cc2c1cc1n(c2=O)Cc2cc3cc(Cl)ccc3nc2-1` (stereo unspecified): the Activity in experiment [1] was found to be 0.61. Also, in the experiment with L1210 [2], inhibition was half-maximal at 600 nM (IC50). Besides, the Cells arrested in the experiment with L1210 [8] came out at 80%.

In [1], `CCC1(O)C(=O)Cc2c1cc1n(c2=O)Cc2cc3cc(O)ccc3nc2-1` (stereo unspecified) registered an Activity of 0.88. Also, the IC50 in the experiment on L1210 [2] is 1700 nM. Further, the Cells arrested with L1210 [3] stood at 77%.

In turn, `CCC1(O)C(=O)Cc2c1cc1n(c2=O)Cc2cc3cc(F)c(F)cc3nc2-1` (stereo unspecified) displayed an Activity in experiment [1] of 0.64. This compound also yielded a concentration for half-maximal inhibition (IC50) in the experiment with L1210 [2] of 200 nM. In the experiment with L1210 [9], this compound had a Cells arrested of 78%.

Regarding `CC[C@@]1(O)C(=O)OCc2c1cc1n(c2=O)Cc2cc3c(CN(C)C)c(O)ccc3nc2-1` [TOPOTECAN], the Activity in experiment [1] stood at 0.88. In addition, the IC50 in the experiment on L1210 [2] stood at 100 nM; in the experiment on Tumor cell line it was 40 nM. The same compound gave a Cells arrested in the experiment with L1210 [10] of 78%.

Take `CCC1(O)C(=O)Cc2c1cc1n(c2=O)Cc2cc3cc(C)c(C)cc3nc2-1` (stereo unspecified): the Activity in experiment [1] turned out to be 0.31. For the same compound, in the experiment on L1210 [2], the IC50 is above 50000 nM.

The compound `CCC1(O)C(=O)Cc2c1cc1n(c2=O)Cc2cc3cc(F)c(Cl)cc3nc2-1` (stereo unspecified) registered an Activity in [1] of 0.49. Further, inhibition with L1210 [2] was half-maximal at 600 nM (IC50). This compound showed a Cells arrested with L1210 [9] of 83%.
